Converted amounts (≈) assume the structure as drawn. Like-named read-outs stand apart in the source and are kept apart here.
How the values were obtained:
Botrtyis cinerea (Bc) = test: In vitro pathogen growth inhibition assay, Bc; assay type: cell-based; details: 48 h
Procedure, shortened: (§1)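 Spores in 17% V8 liquid medium, or 1.5 mm Rs mycelial plugs in ¼ PDB, incubated with compound; final concentration checked by OD600 for precipitation. OD readings at 24 and 48 h, blank-subtracted, plus visual ratings; value is concentration giving ≥90% growth inhibition.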

[1] = test system: Collectotrichum graminicola (Cg); test: In vitro pathogen growth inhibition assay, Cg; assay type: cell-based; details: 48 h
Procedure, shortened: as §1

Diplodia maydis (Dm) = test: In vitro pathogen growth inhibition assay, Dm; assay type: cell-based; details: Stenocarpella maydis, 48 h
Procedure, shortened: (§2)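 Value reported is the compound concentration reaching ≥90% growth inhibition, from OD readings at 24 and 48 h after blank subtraction, confirmed visually. Inoculum was spores diluted in 17% V8 medium, except Rs, using 1.5 mm mycelial plugs in ¼ PDB; actual compound concentration corrected via OD600.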

[2] = test system: Fusarium moniliforme (Fm); test: In vitro pathogen growth inhibition assay, Fm; assay type: cell-based; details: Fusarium verticillioides
Procedure, shortened: as §1

[3] = test system: Fusarium virguliforme (Fv); test: In vitro pathogen growth inhibition assay, Fv; assay type: cell-based
Procedure, shortened: as §2

[4] = test system: Phytophthora capsici (Pc); test: In vitro pathogen growth inhibition assay, Pc; assay type: cell-based; details: 48 h
Procedure, shortened: as §2

Rhizoctonia solani (Rs) = test: In vitro pathogen growth inhibition assay, Rs (mycelial plugs); assay type: cell-based; details: Rhizoctonia solani, 48 h, mycelial plugs
Procedure, shortened: as §2

Septoria tritici (St) = test: In vitro pathogen growth inhibition assay, St; assay type: cell-based; details: Zymoseptoria tritici, 48 h
Procedure, shortened: as §1

[5] = test system: Blumeria graminis f. sp. hordei; test: Foliar protection test for barley powdery mildew control; assay type: in vivo; details: foliar spray on Hordeum vulgare cv. Perry, inoculated 24 hours after treatment, evaluated 7 days later
Procedure, shortened: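 Six-day-old barley (cv. Perry) sprayed to wetness on both leaf sides; 24 h later inoculated by shaking spores from infected stock plants. Kept at 20 to 22° C, 70% relative humidity; mildew colonization assessed 7 days later.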

Sphaerotheca fuliginea = test: Foliar protection for cucumber powdery mildew control; assay type: in vivo; details: foliar spray on Cucumis sativus cv. Straight Eight, inoculated 24 hours after treatment, evaluated 7 days later
Procedure, shortened: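 Cucumber plants (cv. Straight Eight, 10 days old) sprayed to wetness on both leaf surfaces, then inoculated 24 h later by shaking sporulating stock plants over them. Held at 23–27 °C, 16 h light, 60% RH. Mildew colonization scored 7 days after inoculation, at compound concentrations of 10 ppm or lower.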

[6] = test system: Mycosphaerella graminicola (synthetic Septoria tritici); test: Foliar protection test for wheat septoria leaf blotch control; assay type: in vivo; details: foliar spray on Triticum aestivum cv. WinterHawk, inoculated 1 hour after treatment, evaluated 16 days later
Fusarium graminearum = assay type: in vivo; details: spray on flowering Triticum aestivum cv. Samson, inoculated 24 hours after treatment, evaluated 14 days later
Puccinia triticina = test: Foliar protection test for wheat leaf rust control; assay type: in vivo; details: foliar application to wheat (Triticum aestivum cv. Winterhawk), evaluated 10 days later
Phakopsora pachyrhizi = test: Foliar protection test for Asian soybean rust control; assay type: in vivo; details: foliar application to soybean (Glycine max AG4832), percent disease area evaluated 14 days later
[7] = ≥90% growth inhibition, 48 hours, vs 2% DMSO control, read-out: Compound Concentration (ppm) sufficient for ≥90% inhibition of Bc
[8] = ≥90% growth inhibition, 48 hours, vs 2% DMSO control, read-out: Compound Concentration (ppm) sufficient for ≥90% inhibition of Cg
[9] = ≥90% growth inhibition, 48 hours, vs 2% DMSO control, read-out: Compound Concentration (ppm) sufficient for ≥90% inhibition of Dm
[10] = ≥90% growth inhibition, 48 hours, vs 2% DMSO control, read-out: Compound Concentration (ppm) sufficient for ≥90% inhibition of Fm
[11] = ≥90% growth inhibition, 48 hours, vs 2% DMSO control, read-out: Compound Concentration (ppm) sufficient for ≥90% inhibition of Fv
[12] = ≥90% growth inhibition, 48 hours, vs 2% DMSO control, read-out: Compound Concentration (ppm) sufficient for ≥90% inhibition of Pc
[13] = ≥90% growth inhibition, 48 hours, vs 2% DMSO control, read-out: Compound Concentration (ppm) sufficient for ≥90% inhibition of Rs
[14] = ≥90% growth inhibition, 48 hours, vs 2% DMSO control, read-out: Compound Concentration (ppm) sufficient for ≥90% inhibition of St
[15] = ≥90% inhibition, 48 hours vs 2% DMSO control, read-out: Compound Concentration (ppm) sufficient for ≥90% inhibition of growth, Bc
[16] = ≥90% inhibition, 48 hours vs 2% DMSO control, read-out: Compound Concentration (ppm) sufficient for ≥90% inhibition of growth, Cg
[17] = ≥90% inhibition, 48 hours vs 2% DMSO control, read-out: Compound Concentration (ppm) sufficient for ≥90% inhibition of growth, Dm
[18] = ≥90% inhibition, 48 hours vs 2% DMSO control, read-out: Compound Concentration (ppm) sufficient for ≥90% inhibition of growth, Fm
[19] = ≥90% inhibition, 48 hours vs 2% DMSO control, read-out: Compound Concentration (ppm) sufficient for ≥90% inhibition of growth, Fv
[20] = ≥90% inhibition, 48 hours vs 2% DMSO control, read-out: Compound Concentration (ppm) sufficient for ≥90% inhibition of growth, Pc
[21] = ≥90% inhibition, 48 hours vs 2% DMSO control, read-out: Compound Concentration (ppm) sufficient for ≥90% inhibition of growth, Rs
[22] = ≥90% inhibition, 48 hours vs 2% DMSO control, read-out: Compound Concentration (ppm) sufficient for ≥90% inhibition of growth, St

Compound | IC90 (Botrtyis cinerea (Bc); [7]) | IC90 [1, 8] | IC90 (Diplodia maydis (Dm); [9]) | IC90 [2, 10] | IC90 [3, 11] | IC90 [4, 12] | Barley Powdery Mildew Control at a compound concentration of 10 ppm or lower [5] | Cucumber Powdery Mildew Control at a compound concentration of 10 ppm or lower (Sphaerotheca fuliginea) | Septoria Leaf Blotch Control at a compound concentration of 25 ppm or lower [6] | Wheat Fusarium Head Blight Control at a compound concentration of 25 ppm or lower (Fusarium graminearum) | Wheat Leaf Rust Control at a compound concentration of 10 ppm or lower (Puccinia triticina) | Asian Soybean Rust Control at a compound concentration of 25 ppm or lower (Phakopsora pachyrhizi) | IC90 (Botrtyis cinerea (Bc); [15]) | IC90 [1, 16] | IC90 (Diplodia maydis (Dm); [17]) | IC90 [2, 18] | IC90 [3, 19] | IC90 [4, 20] | IC90 (Rhizoctonia solani (Rs); [21]) | IC90 (Septoria tritici (St); [22]) | further results
COc1ccc(F)cc1[C@H](Cn1c(=O)n(C(C)(C)C(=O)NC2CCC2)c(=O)c2c(C)c(-n3cccn3)sc21)OCCC#N [Compound I-307, (R)-2-(1-(2-(2-cyanoethoxy)-2-(5-fluoro-2-methoxyphenyl)ethyl)-5-methyl-2,4-dioxo-6-(1H-pyrazol-1-yl)-1,4-dihydrothieno[2,3-d]pyrimidin-3 (2H)-yl)-N-cyclobutyl-2-methylpropanamide] | ≥ 0.4 µg/mL | 2 µg/mL (≈ 3.29 µM) | 2 µg/mL (≈ 3.29 µM) | 0.08 µg/mL (≈ 0.131 µM) | 0.4 µg/mL (≈ 0.657 µM) | > 50 µg/mL | AA (≥85% control of barley powdery mildew) | AA (≥85% control of cucumber powdery mildew) | B (from 50 to 69% control of wheat septoria leaf blotch) | C (from 25 to 49% control of wheat fusarium head blight) | AA (≥85% control of wheat leaf rust) | C (from 25 to 49% control of Asian soybean rust) | – | – | – | – | – | – | – | – | IC90 (Rhizoctonia solani (Rs); [13]): 0.08 µg/mL (≈ 0.131 µM); IC90 (Septoria tritici (St); [14]): > 50 µg/mL
COc1ccc(F)cc1[C@@H](O)Cn1c(=O)n([C@H](C)C(=O)N(C)C(C)C)c(=O)c2c(C)c(-n3nccn3)sc21 [Compound I-188, (R)-2-(1-((R)-2-(5-fluoro-2-methoxyphenyl)-2-hydroxyethyl)-5-methyl-2,4-dioxo-6-(2H-1,2,3-triazol-2-yl)-1,4-dihydrothieno[2,3-d]pyrimidin-3 (2H)-yl)-N-isopropyl-N-methylpropanamide] | 0.4 µg/mL (≈ 0.734 µM) | 2 µg/mL (≈ 3.67 µM) | 2 µg/mL (≈ 3.67 µM) | 0.08 µg/mL (≈ 0.147 µM) | 0.4 µg/mL (≈ 0.734 µM) | > 50 µg/mL | AA (≥85% control of barley powdery mildew) | AA (≥85% control of cucumber powdery mildew) | C (from 25 to 49% control of wheat septoria leaf blotch) | D (<25% control of wheat fusarium head blight) | AA (≥85% control of wheat leaf rust) | B (from 50 to 69% control of Asian soybean rust) | – | – | – | – | – | – | – | – | IC90 (Rhizoctonia solani (Rs); [13]): 0.4 µg/mL (≈ 0.734 µM); IC90 (Septoria tritici (St); [14]): > 50 µg/mL
COc1ccccc1[C@H](Cn1c(=O)n(C(C)(C)C(=O)N2CCCC2)c(=O)c2c(C)c(-n3nccn3)sc21)OC1CCOCC1 [Compound I-034, (R)-1-(2-(2-methoxyphenyl)-2-((tetrahydro-2H-pyran-4-yl)oxy)ethyl)-5-methyl-3-(2-methyl-1-oxo-1-(pyrrolidin-1-yl)propan-2-yl)-6-(2H-1,2,3-triazol-2-yl)thieno[2,3-d]pyrimidine-2,4(1H,3H)-dione] | – | – | – | – | – | – | AA (≥85% control of barley powdery mildew) | AA (≥85% control of cucumber powdery mildew) | B (from 50 to 69% control of wheat septoria leaf blotch) | C (from 25 to 49% control of wheat fusarium head blight) | AA (≥85% control of wheat leaf rust) | AA (≥85% control of Asian soybean rust) | 0.4 µg/mL (≈ 0.642 µM) | ≥ 0.4 µg/mL | ≥ 0.4 µg/mL | 0.08 µg/mL (≈ 0.128 µM) | 0.4 µg/mL (≈ 0.642 µM) | ≥ 10 µg/mL | 0.08 µg/mL (≈ 0.128 µM) | ≥ 2 µg/mL | –
COc1ccc(F)cc1[C@H](Cn1c(=O)n([C@@H](C)C(=O)NC(C)C)c(=O)c2c(C)c(-n3nccn3)sc21)OCCO [Compound I-096, (S)-2-(1-((R)-2-(5-fluoro-2-methoxyphenyl)-2-(2-hydroxyethoxy)ethyl)-5-methyl-2,4-dioxo-6-(2H-1,2,3-triazol-2-yl)-1,4-dihydrothieno[2,3-d]pyrimidin-3 (2H)-yl)-N-isopropylpropanamide] | – | – | – | – | – | – | B (from 50 to 69% control of barley powdery mildew) | AA (≥85% control of cucumber powdery mildew) | B (from 50 to 69% control of wheat septoria leaf blotch) | D (<25% control of wheat fusarium head blight) | A (from 70% to 84% control of wheat leaf rust) | A (from 70% to 84% control of Asian soybean rust) | 2 µg/mL (≈ 3.48 µM) | 0.08 µg/mL (≈ 0.139 µM) | 0.4 µg/mL (≈ 0.696 µM) | 0.08 µg/mL (≈ 0.139 µM) | 2 µg/mL (≈ 3.48 µM) | 2 µg/mL (≈ 3.48 µM) | 0.08 µg/mL (≈ 0.139 µM) | ≥ 2 µg/mL | –
COc1ccc(F)cc1[C@H](Cn1c(=O)n([C@H](C)C(=O)NC2CCC2)c(=O)c2c(C)c(-n3nccn3)sc21)OCCO [Compound I-092, (R)—N-cyclobutyl-2-(1-((R)-2-(5-fluoro-2-methoxyphenyl)-2-(2-hydroxyethoxy)ethyl)-5-methyl-2,4-dioxo-6-(2H-1,2,3-triazol-2-yl)-1,4-dihydrothieno[2,3-d]pyrimidin-3(2H)-yl)propanamide] | – | – | – | – | – | – | C (from 25 to 49% control of barley powdery mildew) | AA (≥85% control of cucumber powdery mildew) | B (from 50 to 69% control of wheat septoria leaf blotch) | C (from 25 to 49% control of wheat fusarium head blight) | AA (≥85% control of wheat leaf rust) | B (from 50 to 69% control of Asian soybean rust) | 0.4 µg/mL (≈ 0.682 µM) | 0.08 µg/mL (≈ 0.136 µM) | 0.4 µg/mL (≈ 0.682 µM) | 0.08 µg/mL (≈ 0.136 µM) | > 0.4 µg/mL | 2 µg/mL (≈ 3.41 µM) | 0.08 µg/mL (≈ 0.136 µM) | ≥ 2 µg/mL | –

— patent US10941157B2, “Pesticidal compositions and uses thereof” (Gilead Apollo, LLC, priority 2015, dated 2021)
